According to PubChem BioAssay (NCI):
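48-hour exposure; five concentrations; linearly interpolated endpoints. GI50: concentration for 50% inhibition of growth. TGI marks complete inhibition of growth.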

What was measured:
Test in all cases: DTP human tumour cell line panel, 48 h
[1] = test system: NCI-H226 lung
[2] = test system: CCRF-CEM leukemia
[3] = test system: SF-268 CNS
[4] = test system: DLD-1 colon
[5] = test system: LXFL 529 NSCLC
[6] = test system: UACC-257 melanoma
[7] = test system: NCI-H522 lung
[8] = test system: HCT-15 colon
[9] = test system: KM20L2 colon
[10] = test system: SK-MEL-28 melanoma
[11] = test system: HOP-92 NSCLC
[12] = test system: TK-10 renal
[13] = test system: M14 melanoma
[14] = test system: NCI-H460 lung
[15] = test system: UO-31 renal
[16] = test system: SNB-75 CNS
[17] = test system: RXF 393 renal
[18] = test system: HOP-62 NSCLC
[19] = test system: SF-539 CNS
[20] = test system: SN12C renal
[21] = test system: HT29 colon
[22] = test system: OVCAR-3 ovarian
[23] = test system: MOLT-4 leukemia
[24] = test system: UACC-62 melanoma
[25] = test system: 786-0 renal
[26] = test system: CAKI-1 renal
[27] = test system: HCT-116 colon
[28] = test system: SK-MEL-2 melanoma
[29] = test system: RPMI-8226 leukemia
[30] = test system: SW-620 colon
[31] = test system: SK-MEL-5 melanoma
[32] = test system: SK-OV-3 ovarian
[33] = test system: U251 CNS
[34] = test system: OVCAR-8 ovarian
[35] = test system: COLO 205 colon
[36] = test system: A498 renal
[37] = test system: HOP-18 NSCLC
[38] = test system: DMS 273 small cell lung
[39] = test system: ACHN renal
[40] = test system: K-562 leukemia
[41] = test system: NCI-H23 lung
[42] = test system: IGROV1 ovarian
[43] = test system: HCC-2998 colon
[44] = test system: OVCAR-4 ovarian

CC(=O)[CH-]C(=O)c1ccccc1.CC(=O)[CH-]C(=O)c1ccccc1.CC(C)CCCC(C)[C@H]1CCC2[C@@H]3CC=C4C[C@@H]([O-])CC[C@]4(C)C3CC[C@@]21C.CC(C)CCCC(C)[C@H]1CCC2[C@@H]3CC=C4C[C@@H]([O-])CC[C@]4(C)C3CC[C@@]21C.[Ti+4] (stereo partly drawn)
GI50 [1]: > 100 µM
TGI [1]: > 100 µM
GI50 [2]: > 100 µM
TGI [2]: > 100 µM
GI50 [3]: > 100 µM
TGI [3]: > 100 µM
GI50 [4]: > 100 µM
TGI [4]: > 100 µM
GI50 [5]: > 100 µM
TGI [5]: > 100 µM
GI50 [6]: > 100 µM
TGI [6]: > 100 µM
GI50 [7]: > 100 µM
TGI [7]: > 100 µM
GI50 [8]: > 100 µM
TGI [8]: > 100 µM
GI50 [9]: > 100 µM
TGI [9]: > 100 µM
GI50 [10]: > 100 µM
TGI [10]: > 100 µM
GI50 [11]: > 100 µM
TGI [11]: > 100 µM
GI50 [12]: > 100 µM
TGI [12]: > 100 µM
GI50 [13]: > 100 µM
TGI [13]: > 100 µM
GI50 [14]: > 100 µM
TGI [14]: > 100 µM
GI50 [15]: > 100 µM
TGI [15]: > 100 µM
GI50 [16]: > 100 µM
TGI [16]: > 100 µM
GI50 [17]: > 100 µM
TGI [17]: > 100 µM
GI50 [18]: > 100 µM
TGI [18]: > 100 µM
GI50 [19]: > 100 µM
TGI [19]: > 100 µM
GI50 [20]: > 100 µM
TGI [20]: > 100 µM
GI50 [21]: > 100 µM
TGI [21]: > 100 µM
GI50 [22]: > 100 µM
TGI [22]: > 100 µM
GI50 [23]: > 100 µM
TGI [23]: > 100 µM
GI50 [24]: > 100 µM
TGI [24]: > 100 µM
GI50 [25]: > 100 µM
TGI [25]: > 100 µM
GI50 [26]: > 100 µM
TGI [26]: > 100 µM
GI50 [27]: > 100 µM
TGI [27]: > 100 µM
GI50 [28]: > 100 µM
TGI [28]: > 100 µM
GI50 [29]: > 100 µM
TGI [29]: > 100 µM
GI50 [30]: > 100 µM
TGI [30]: > 100 µM
GI50 [31]: > 100 µM
TGI [31]: > 100 µM
GI50 [32]: > 100 µM
TGI [32]: > 100 µM
GI50 [33]: > 100 µM
TGI [33]: > 100 µM
GI50 [34]: > 100 µM
TGI [34]: > 100 µM
GI50 [35]: > 100 µM
TGI [35]: > 100 µM
GI50 [36]: > 100 µM
TGI [36]: > 100 µM
GI50 [37]: > 100 µM
TGI [37]: > 100 µM
GI50 [38]: > 100 µM
TGI [38]: > 100 µM
GI50 [39]: > 100 µM
TGI [39]: > 100 µM
GI50 [40]: > 100 µM
TGI [40]: > 100 µM
GI50 [41]: > 100 µM
TGI [41]: > 100 µM
GI50 [42]: > 100 µM
TGI [42]: > 100 µM
GI50 [43]: > 100 µM
TGI [43]: > 100 µM
GI50 [44]: > 100 µM
TGI [44]: > 100 µM
